Like-named read-outs stand apart in the source and are kept apart here.
Tests used:
[1] = tested on: wound after doxorubicin SC in swine; experiment: Pilot study on swine, doxorubicin SC; assay type: in vivo; settings: 3 mg doxorubicin SC, not receiving ICRF-187
Description: (§1) A danish porker weighting approximately 30 kg was used. The animals were fully anesthesized and artificially ventilated during SC injection of 1 ml of anthracycline.

[2] = tested on: SC daunorubicin induced wounds in mice; settings: for AUC / DW / FW / TTW: Table A, pooled data
Description: The mice were euthanized after healing of all wounds.
The effect of various doses of ICRF-187 was investigated in Example 3.
Comparison of two concentrations of sc daunorubicin were compared with and without simultaneous treatment with ICRF-187 250 mg/kg.
ICRF-187 was administered at the same time as daunorubicin, 3 hours after, and 6 hours after, respectively. Saline served as control. The dose of daunorubicin was 3 mg/kg so and ICRF-187 was administered IP in a 250 mg/kg solution. Twenty-eight mice were used. The results are depicted in data sheet #6 and the mean AUCs are shown graphically in FIG. 5.
100 mg/kg ICRF-187 was injected into the subcutaneous papule produced by injected daunorubicin. This treatment was compared to intralesional saline control, IP saline control, and IP treatment with ICRF-187.
[…]. Seven experiments (n=6, 7, 7, 9, 9, 9, and 9) with 3 mg/kg daunorubicin SC plus saline IP at t=0 and seven experiments (n=6, 7, 7, 9, 9, 8, and 9) with 3 mg/kg daunorubicin SC plus 250 mg/kg ICRF-187 IP at t=0tin two experiments (n=9 and 4) the ICRF-187 doses were 62,5 mg/kg and 375 mg/kg IP, respectively, in two (n=7 and 9) the dose was 125 mg/kg. ICRF-187 250 mg/kg was administered IV in one (n=9).

[3] = tested on: wound after daunorubicin SC in swine; experiment: Pilot study on swine, daunorubicin SC; assay type: in vivo; settings: 1 ml daunorubicin SC, untreated
Description: as §1

[4] = Example 3, daunorubicin 3 mg/kg sc + saline IP
[5] = Example 4, daunorubicin 1 mg/kg sc + saline IP
[6] = Example 4, daunorubicin 3 mg/kg sc + saline IP
[7] = Example 5, daunorubicin 1 mg/kg sc + saline IP
[8] = Example 5, daunorubicin 3 mg/kg sc + saline IP
[9] = Example 6, daunorubicin 3 mg/kg sc + saline IP
[10] = Example 7, daunorubicin 3 mg/kg sc + 0.05 ml saline IL
[11] = Example 7, daunorubicin 3 mg/kg sc + saline IP
[12] = daunorubicin 1 mg/kg SC + saline IP
[13] = daunorubicin 3 mg/kg SC + saline IP
[14] = daunorubicin 3 mg/kg SC + saline IP, listed as daunorubicin

## COc1cccc2c1C(=O)c1c(O)c3c(c(O)c1C2=O)C[C@@](O)(C(=O)CO)C[C@@H]3O[C@H]1C[C@H](N)[C@H](O)[C@H](C)O1 [Doxorubicin]
[1]
  wound appearance: a wound appeared

## COc1cccc2c1C(=O)c1c(O)c3c(c(O)c1C2=O)C[C@@](O)(C(C)=O)C[C@@H]3O[C@H]1C[C@H](N)[C@H](O)[C@H](C)O1 [Daunorubicin]
[2]; [4]
  Mean AUC: 764 mm^2 × days
  Mean DWw ± SEM: 29.8 ± 0.5 days
  Mean TTWw ± SEM: 4.8 ± 0.4 days
[2]; [5]
  Mean AUC: 365 mm^2 × days
  Mean DWw ± SEM: 25.5 ± 1.1 days
  Mean TTWw ± SEM: 7.3 ± 1.6 days
[2]; [6]
  Mean AUC: 1240 mm^2 × days
  Mean DWw ± SEM: 29.0 ± 0.9 days
  Mean TTWw ± SEM: 4.8 ± 0.3 days
[2]; [7]
  Mean AUC: 184 mm^2 × days
  Mean DWw ± SEM: 20.5 ± 1.3 days
  Mean TTWw ± SEM: 8.5 ± 0.7 days
[2]; [8]
  Mean AUC: 955 mm^2 × days
  Mean DWw ± SEM: 25.7 ± 0.7 days
  Mean TTWw ± SEM: 5.1 ± 0.2 days
[2]; [9]
  Mean AUC: 1398 mm^2 × days
  Mean DWw ± SEM: 27.4 ± 0.5 days
  Mean TTWw ± SEM: 5.0 ± 0.4 days
[2]; [10]
  Mean AUC: 1290 mm^2 × days
  Mean DWw ± SEM: 24.4 ± 0.6 days
  Mean TTWw ± SEM: 6.2 ± 0.3 days
[2]; [11]
  Mean AUC: 1144 mm^2 × days
  Mean DWw ± SEM: 26.9 ± 0.7 days
  Mean TTWw ± SEM: 6.0 ± 0.3 days
[2]; [12]
  AUC: 263 (± 56) mm^2×days
  DW: 22.6 (± 1.1) days
  FW: 88%
  TTW: 6.9 (± 0.7) days
[2]; [13]
  AUC: 1260 (± 72) mm^2×days
  DW: 26.6 (± 0.3) days
  FW: 96%
  TTW: 5.5 (± 0.2) days
[2]; [14]
  DW: 26.6 days
  TTW: 5.5 days
[3]
  wound appearance: a large wound appeared

Reference: patent US6727253B2, “Treatment of accidental extravasation of anthracyclines” (Antianthra APS, priority 1999, dated 2004)
